Measured values as given in patent US20240139211A1, “METHODS AND COMPOSITIONS FOR TREATING AMYOTROPHIC LATERAL SCLEROSIS” (Amylyx Pharmaceuticals, Inc., priority 2022, published 2024).
Values joined by “and” are separate entries in the source; they are usually repeats but may differ in a detail not shown here. Equal entries are not always repeated.

How the values were obtained:
hrCYP2B6 = molecular target: T1, hrCYP2B6 (Homo sapiens, UniProt P20813); assay: CYP reaction phenotyping with hrCYP2B6 (% remaining); assay type: in vitro ADME; conditions: for % Remaining of TA: hrCYP2B6 20 pmol CYP/mL, 5 μM TA, PB and TUDCA co-incubated
T1 sequence (P20813 1-491): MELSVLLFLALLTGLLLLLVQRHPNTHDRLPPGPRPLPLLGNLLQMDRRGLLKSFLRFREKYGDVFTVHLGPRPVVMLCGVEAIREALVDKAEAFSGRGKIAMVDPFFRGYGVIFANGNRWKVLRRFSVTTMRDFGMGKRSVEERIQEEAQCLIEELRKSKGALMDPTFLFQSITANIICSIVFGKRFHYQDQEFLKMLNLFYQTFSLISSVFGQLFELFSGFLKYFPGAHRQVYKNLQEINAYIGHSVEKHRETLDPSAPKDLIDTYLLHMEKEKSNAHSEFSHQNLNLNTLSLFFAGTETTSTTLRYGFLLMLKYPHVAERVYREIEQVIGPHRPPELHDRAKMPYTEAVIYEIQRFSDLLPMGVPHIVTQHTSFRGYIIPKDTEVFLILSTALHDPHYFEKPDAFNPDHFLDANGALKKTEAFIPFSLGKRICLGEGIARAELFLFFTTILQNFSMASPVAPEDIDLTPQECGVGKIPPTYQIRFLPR

P-gp and BCRP = P-gp and BCRP substrate assessment in C2BBe1 monolayers
Protocol: The P-gp and BCRP substrate assessment was conducted in C2BBe1 cell monolayers. […] LY was co-dosed with each dosing solution at a nominal concentration of 200 μM.
The cell culture medium was aspirated, and the cell monolayers were rinsed once with HBSSg_7.4. […] For receiver samples, aliquots (300 μL) were taken at pre-selected time points. […] For donor samples, aliquots (50 μL) were taken at pre-selected time points without replacement.

OAT1 [1] = molecular target: T2, OAT1 (Homo sapiens, UniProt Q4U2R8); assay: in vitro
T2 sequence (Q4U2R8 1-563): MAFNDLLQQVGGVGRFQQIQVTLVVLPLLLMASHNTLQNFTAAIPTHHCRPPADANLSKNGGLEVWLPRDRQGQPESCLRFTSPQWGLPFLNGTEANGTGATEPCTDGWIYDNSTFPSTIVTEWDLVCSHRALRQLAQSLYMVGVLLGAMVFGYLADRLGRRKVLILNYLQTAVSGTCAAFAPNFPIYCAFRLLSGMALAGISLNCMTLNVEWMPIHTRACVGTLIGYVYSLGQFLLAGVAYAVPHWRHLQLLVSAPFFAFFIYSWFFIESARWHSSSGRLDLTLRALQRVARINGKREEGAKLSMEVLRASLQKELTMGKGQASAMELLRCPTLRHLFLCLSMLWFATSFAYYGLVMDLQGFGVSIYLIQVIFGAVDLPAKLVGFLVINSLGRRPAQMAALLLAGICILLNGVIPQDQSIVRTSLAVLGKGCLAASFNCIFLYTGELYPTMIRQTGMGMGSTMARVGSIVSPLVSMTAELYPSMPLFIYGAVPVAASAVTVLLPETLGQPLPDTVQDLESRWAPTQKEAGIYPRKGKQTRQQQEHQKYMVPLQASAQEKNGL

OATP1B3 = OATP1B3 (Homo sapiens, UniProt Q9NPD5); assay: in vitro
Sequence of OATP1B3 (Q9NPD5 whole entry): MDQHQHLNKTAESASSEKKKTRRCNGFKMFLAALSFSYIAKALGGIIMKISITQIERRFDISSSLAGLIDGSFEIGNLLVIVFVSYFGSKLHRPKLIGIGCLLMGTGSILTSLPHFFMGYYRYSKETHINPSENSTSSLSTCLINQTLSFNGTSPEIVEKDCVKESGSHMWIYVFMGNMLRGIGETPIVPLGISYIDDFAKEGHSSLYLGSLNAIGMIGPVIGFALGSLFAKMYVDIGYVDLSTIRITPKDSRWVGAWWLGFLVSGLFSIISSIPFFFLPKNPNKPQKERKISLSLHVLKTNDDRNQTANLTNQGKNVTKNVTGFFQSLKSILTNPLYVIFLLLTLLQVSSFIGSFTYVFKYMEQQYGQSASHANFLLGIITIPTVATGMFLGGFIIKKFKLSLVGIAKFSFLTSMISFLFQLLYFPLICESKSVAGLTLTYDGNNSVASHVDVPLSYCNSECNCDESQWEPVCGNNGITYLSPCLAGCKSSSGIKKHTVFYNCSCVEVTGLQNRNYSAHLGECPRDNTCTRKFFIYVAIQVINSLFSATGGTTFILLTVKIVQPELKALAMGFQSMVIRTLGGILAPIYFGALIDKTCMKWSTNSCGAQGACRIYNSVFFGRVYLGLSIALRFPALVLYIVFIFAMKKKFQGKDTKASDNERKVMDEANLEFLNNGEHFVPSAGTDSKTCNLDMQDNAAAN

CYP1A2 = CYP1A2 enzyme activity induction in hepatocyte cultures
OCT2 [2] = molecular target: T3, OCT2 (Homo sapiens, UniProt O15244); assay: in vitro
T3 sequence (O15244 1-555): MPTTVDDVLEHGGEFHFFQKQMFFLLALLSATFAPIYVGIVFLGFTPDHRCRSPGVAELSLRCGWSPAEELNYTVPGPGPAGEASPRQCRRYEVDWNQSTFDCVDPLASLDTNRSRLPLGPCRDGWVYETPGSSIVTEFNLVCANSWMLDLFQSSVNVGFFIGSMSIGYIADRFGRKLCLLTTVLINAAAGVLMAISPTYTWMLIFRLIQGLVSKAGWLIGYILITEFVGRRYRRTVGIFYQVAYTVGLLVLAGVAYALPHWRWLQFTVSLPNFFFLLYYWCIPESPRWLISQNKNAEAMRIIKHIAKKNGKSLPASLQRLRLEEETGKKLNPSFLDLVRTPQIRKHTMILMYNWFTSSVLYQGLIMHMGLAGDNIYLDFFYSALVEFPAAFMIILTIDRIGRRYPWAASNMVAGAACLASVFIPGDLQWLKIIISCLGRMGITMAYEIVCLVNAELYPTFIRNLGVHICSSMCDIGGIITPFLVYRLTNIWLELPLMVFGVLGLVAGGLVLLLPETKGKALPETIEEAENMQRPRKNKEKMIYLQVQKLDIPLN

human plasma protein = assay: Human plasma protein binding; assay type: in vitro ADME
OAT1 [3] = molecular target: T2, OAT1; assay: OAT1 inhibition, PAH uptake in transfected HEK cells
OCT2 [4] = molecular target: T3, OCT2; assay: OCT2 inhibition, MPP+ uptake in transfected HEK cells; conditions: read-out: Estimated IC50 toward OCT2; TUDCA and PB present simultaneously
[5] = 1.62 μM TUDCA (Solution 3), C2BBe1 cells, average
[6] = 1.62 μM TUDCA (Solution 3), C2BBe1 cells, single replicates
[7] = 16.2 μM TUDCA (Solution 2), C2BBe1 cells, average
[8] = 16.2 μM TUDCA (Solution 2), C2BBe1 cells, single replicates
[9] = […] TUDCA (Solution 1), C2BBe1 cells, average
[10] = […] TUDCA (Solution 4), C2BBe1 cells, average

## O=C(O)CCCc1ccccc1 [PB, sodium phenylbutyrate]
hrCYP2B6; human, 1 h, 5 µM, pH 7.4
  % remaining after 60 minutes: greater than 90%
P-gp and BCRP; Caco-2
  P-gp or BCRP substrate: neither TUDCA nor PB is P-gp or BCRP substrate
OAT1 [1]
  potency estimated from few doses: < 25 µM

## C[C@H](CCC(=O)NCC(=O)O)[C@H]1CC[C@H]2[C@@H]3[C@@H](O)C[C@@H]4C[C@H](O)CC[C@]4(C)[C@H]3CC[C@]12C [Glycoursodeoxycholic acid, glycoursodeoxycholic acid]
OATP1B3
  potency estimated from few doses: < 100 µM
CYP1A2; Donor 1, 72±2 h, three concentrations
  Maximum fold induction of CYP1A2 activity: 5.93 fold
CYP1A2; Donor 2
  Maximum fold induction of CYP1A2 activity: 3.08 fold
CYP1A2; Donor 3
  Maximum fold induction of CYP1A2 activity: 9.43 fold

## O=C(O)Cc1ccccc1 [Phenylacetic acid, phenylacetic acid]
OAT1 [1]
  potency estimated from few doses: < 750 µM
OCT2 [2]
  potency estimated from few doses: < 7500 µM

## tauroursodeoxycholic acid [TUDCA]
hrCYP2B6; 0 min
  % Remaining of TA: 100%
hrCYP2B6; 5 min
  % Remaining of TA: 97.6%
hrCYP2B6; 10 min
  % Remaining of TA: 97.0%
hrCYP2B6; 20 min
  % Remaining of TA: 99.3%
hrCYP2B6; 30 min
  % Remaining of TA: 99.7%
hrCYP2B6; 60 min
  % Remaining of TA: 101%
P-gp and BCRP; [5]
  Papp AP-to-BL: 8.32 10^−6 cm/s
  Papp BL-to-AP: 1.91 10^−6 cm/s
P-gp and BCRP; [6]
  Papp AP-to-BL: 9.59 10^−6 cm/s and 7.25 10^−6 cm/s and 8.12 10^−6 cm/s
  Papp BL-to-AP: 1.75 10^−6 cm/s and 1.84 10^−6 cm/s
P-gp and BCRP; [7]
  Papp AP-to-BL: 2.00 10^−6 cm/s
  Papp BL-to-AP: 0.610 10^−6 cm/s
P-gp and BCRP; [8]
  Papp AP-to-BL: 1.19 10^−6 cm/s and 2.71 10^−6 cm/s and 2.08 10^−6 cm/s
  Papp BL-to-AP: 0.553 10^−6 cm/s and 0.714 10^−6 cm/s and 0.561 10^−6 cm/s
P-gp and BCRP; Caco-2
  Papp BL-to-AP: 2.15 10^−6 cm/s
P-gp and BCRP; [9]
  Papp AP-to-BL: 5.92 10^−6 cm/s
  Papp BL-to-AP: 3.00 10^−6 cm/s
P-gp and BCRP; [10]
  Papp AP-to-BL: 7.11 10^−6 cm/s
  Papp BL-to-AP: 2.14 10^−6 cm/s
Human plasma protein
  Human Plasma Protein Binding (%): 98.5%
OAT1 [3]; previous study, converted
  IC50 for in vitro inhibition of human OAT1: 0.035 to 0.111 µg/mL
OAT1 [3]; read-out: IC50 for in vitro inhibition of human OAT1, previous study (Example 6)
  IC50: 0.074 to 0.222 µM
OCT2 [4]
  IC50: > 162 µM
